Reference: BigSolDB 2.1

O=S(=O)(c1ccccc1)N(F)S(=O)(=O)c1ccccc1
Settings | solubility (mole fraction)
in 2-butanone, 273.35 K | 0.0332
in 2-butanone, 278.35 K | 0.0396
in 2-butanone, 283.35 K | 0.047
in 2-butanone, 288.35 K | 0.0546
in 2-butanone, 292.85 K | 0.0637
in 2-butanone, 297.95 K | 0.0734
in 2-butanone, 302.65 K | 0.0852
in 2-butanone, 307.35 K | 0.0978
in 2-butanone, 312.55 K | 0.111
in 2-butanone, 316.95 K | 0.128
in 2-butanone, 322.85 K | 0.146
in 2-pentanone, 273.35 K | 0.0316
in 2-pentanone, 278.35 K | 0.038
in 2-pentanone, 283.35 K | 0.0455
in 2-pentanone, 288.35 K | 0.0534
in 2-pentanone, 292.85 K | 0.0628
in 2-pentanone, 297.95 K | 0.073
in 2-pentanone, 302.65 K | 0.0853
in 2-pentanone, 307.35 K | 0.0988
in 2-pentanone, 312.55 K | 0.113
in 2-pentanone, 316.95 K | 0.131
in 2-pentanone, 322.85 K | 0.151
in acetone, 273.35 K | 0.0309
in acetone, 278.35 K | 0.0376
in acetone, 283.35 K | 0.0455
in acetone, 288.35 K | 0.0539
in acetone, 292.85 K | 0.0639
in acetone, 297.95 K | 0.0749
in acetone, 302.65 K | 0.0885
in acetone, 307.35 K | 0.104
in acetone, 312.55 K | 0.119
in acetone, 316.95 K | 0.14
in acetone, 322.85 K | 0.162
in acetonitrile, 273.35 K | 0.00951
in acetonitrile, 278.35 K | 0.0126
in acetonitrile, 283.35 K | 0.0165
in acetonitrile, 288.35 K | 0.021
in acetonitrile, 292.85 K | 0.0267
in acetonitrile, 297.95 K | 0.0334
in acetonitrile, 302.65 K | 0.0422
in acetonitrile, 307.35 K | 0.0528
in acetonitrile, 312.55 K | 0.0645
in acetonitrile, 316.95 K | 0.0804
in acetonitrile, 322.85 K | 0.0996
in ethanol, 273.35 K | 0.000599
in ethanol, 278.35 K | 0.000791
in ethanol, 283.35 K | 0.00103
in ethanol, 288.35 K | 0.00134
in ethanol, 292.85 K | 0.00168
in ethanol, 297.95 K | 0.00214
in ethanol, 302.65 K | 0.00268
in ethanol, 307.35 K | 0.00331
in ethanol, 312.55 K | 0.00417
in ethanol, 316.95 K | 0.00503
in ethanol, 322.85 K | 0.00641
in ethyl acetate, 273.35 K | 0.0243
in ethyl acetate, 278.35 K | 0.0295
in ethyl acetate, 283.35 K | 0.0353
in ethyl acetate, 288.35 K | 0.0415
in ethyl acetate, 292.85 K | 0.0489
in ethyl acetate, 297.95 K | 0.0568
in ethyl acetate, 302.65 K | 0.0668
in ethyl acetate, 307.35 K | 0.0775
in ethyl acetate, 312.55 K | 0.0885
in ethyl acetate, 316.95 K | 0.103
in ethyl acetate, 322.85 K | 0.119
in ethyl formate, 273.35 K | 0.0206
in ethyl formate, 278.35 K | 0.0254
in ethyl formate, 283.35 K | 0.0309
in ethyl formate, 288.35 K | 0.0369
in ethyl formate, 292.85 K | 0.0441
in ethyl formate, 297.95 K | 0.052
in ethyl formate, 302.65 K | 0.0619
in ethyl formate, 307.35 K | 0.0728
in ethyl formate, 312.55 K | 0.0843
in ethyl formate, 316.95 K | 0.0992
in ethyl formate, 322.85 K | 0.116
in isobutanol, 273.35 K | 0.000182
in isobutanol, 278.35 K | 0.000265
in isobutanol, 283.35 K | 0.000382
in isobutanol, 288.35 K | 0.000545
in isobutanol, 292.85 K | 0.000744
in isobutanol, 297.95 K | 0.00104
in isobutanol, 302.65 K | 0.00141
in isobutanol, 307.35 K | 0.00188
in isobutanol, 312.55 K | 0.00258
in isobutanol, 316.95 K | 0.00332
in isobutanol, 322.85 K | 0.00467
in isopentanol, 273.35 K | 0.000312
in isopentanol, 278.35 K | 0.000432
in isopentanol, 283.35 K | 0.000594
in isopentanol, 288.35 K | 0.000812
in isopentanol, 292.85 K | 0.00106
in isopentanol, 297.95 K | 0.00142
in isopentanol, 302.65 K | 0.00184
in isopentanol, 307.35 K | 0.00238
in isopentanol, 312.55 K | 0.00312
in isopentanol, 316.95 K | 0.00389
in isopentanol, 322.85 K | 0.00519
in isopropanol, 273.35 K | 0.000584
in isopropanol, 278.35 K | 0.000798
in isopropanol, 283.35 K | 0.000929
in isopropanol, 288.35 K | 0.00121
in isopropanol, 292.85 K | 0.0015
in isopropanol, 297.95 K | 0.00186
in isopropanol, 302.65 K | 0.00226
in isopropanol, 307.35 K | 0.00275
in isopropanol, 312.55 K | 0.00346
in isopropanol, 316.95 K | 0.0041
in isopropanol, 322.85 K | 0.00495
in methanol, 273.35 K | 0.000611
in methanol, 278.35 K | 0.000792
in methanol, 283.35 K | 0.00102
in methanol, 288.35 K | 0.0013
in methanol, 292.85 K | 0.0016
in methanol, 297.95 K | 0.00201
in methanol, 302.65 K | 0.00248
in methanol, 307.35 K | 0.00302
in methanol, 312.55 K | 0.00374
in methanol, 316.95 K | 0.00445
in methanol, 322.85 K | 0.0056
in methyl acetate, 273.35 K | 0.0285
in methyl acetate, 278.35 K | 0.0346
in methyl acetate, 283.35 K | 0.0417
in methyl acetate, 288.35 K | 0.0492
in methyl acetate, 292.85 K | 0.0583
in methyl acetate, 297.95 K | 0.0681
in methyl acetate, 302.65 K | 0.0803
in methyl acetate, 307.35 K | 0.0934
in methyl acetate, 312.55 K | 0.107
in methyl acetate, 316.95 K | 0.126
in methyl acetate, 322.85 K | 0.145
in n-butanol, 273.35 K | 0.00053
in n-butanol, 278.35 K | 0.000696
in n-butanol, 283.35 K | 0.000909
in n-butanol, 288.35 K | 0.00117
in n-butanol, 292.85 K | 0.00147
in n-butanol, 297.95 K | 0.00187
in n-butanol, 302.65 K | 0.00233
in n-butanol, 307.35 K | 0.00287
in n-butanol, 312.55 K | 0.0036
in n-butanol, 316.95 K | 0.00433
in n-butanol, 322.85 K | 0.00551
in n-pentanol, 273.35 K | 0.000465
in n-pentanol, 278.35 K | 0.000632
in n-pentanol, 283.35 K | 0.000843
in n-pentanol, 288.35 K | 0.00112
in n-pentanol, 292.85 K | 0.00142
in n-pentanol, 297.95 K | 0.00186
in n-pentanol, 302.65 K | 0.00236
in n-pentanol, 307.35 K | 0.00298
in n-pentanol, 312.55 K | 0.00382
in n-pentanol, 316.95 K | 0.0047
in n-pentanol, 322.85 K | 0.00613
in n-propanol, 273.35 K | 0.000452
in n-propanol, 278.35 K | 0.000616
in n-propanol, 283.35 K | 0.000832
in n-propanol, 288.35 K | 0.00111
in n-propanol, 292.85 K | 0.00142
in n-propanol, 297.95 K | 0.00187
in n-propanol, 302.65 K | 0.00239
in n-propanol, 307.35 K | 0.00304
in n-propanol, 312.55 K | 0.00392
in n-propanol, 316.95 K | 0.00485
in n-propanol, 322.85 K | 0.00633
in toluene, 273.35 K | 0.0112
in toluene, 278.35 K | 0.0145
in toluene, 283.35 K | 0.0185
in toluene, 288.35 K | 0.0228
in toluene, 292.85 K | 0.0284
in toluene, 297.95 K | 0.0346
in toluene, 302.65 K | 0.0429
in toluene, 307.35 K | 0.052
in toluene, 312.55 K | 0.0623
in toluene, 316.95 K | 0.076
in toluene, 322.85 K | 0.092
